This is an account of results in patent publication US8431706B2, “1,2,3,4-tetrahydroqinoline derivative useful for the treatment of diabetes” (Eli Lilly and Company, priority 2011, dated 2013).

In one assay the target is T1, PPARγ (Homo sapiens, UniProt P37231).
T1 sequence (P37231 1-505): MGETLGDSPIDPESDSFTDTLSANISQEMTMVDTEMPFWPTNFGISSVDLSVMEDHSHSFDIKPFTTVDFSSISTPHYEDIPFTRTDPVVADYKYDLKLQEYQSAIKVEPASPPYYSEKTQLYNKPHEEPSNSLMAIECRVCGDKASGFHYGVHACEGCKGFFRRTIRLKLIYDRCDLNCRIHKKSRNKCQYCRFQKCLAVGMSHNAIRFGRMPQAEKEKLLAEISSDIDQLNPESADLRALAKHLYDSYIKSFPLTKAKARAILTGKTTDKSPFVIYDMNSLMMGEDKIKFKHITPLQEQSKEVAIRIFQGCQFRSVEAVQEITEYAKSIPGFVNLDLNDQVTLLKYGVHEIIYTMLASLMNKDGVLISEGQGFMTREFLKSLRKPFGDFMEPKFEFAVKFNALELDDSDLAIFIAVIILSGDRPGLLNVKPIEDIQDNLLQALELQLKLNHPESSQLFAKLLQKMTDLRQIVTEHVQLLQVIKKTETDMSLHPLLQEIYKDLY
T1 sequence (P19793 1-462 partner): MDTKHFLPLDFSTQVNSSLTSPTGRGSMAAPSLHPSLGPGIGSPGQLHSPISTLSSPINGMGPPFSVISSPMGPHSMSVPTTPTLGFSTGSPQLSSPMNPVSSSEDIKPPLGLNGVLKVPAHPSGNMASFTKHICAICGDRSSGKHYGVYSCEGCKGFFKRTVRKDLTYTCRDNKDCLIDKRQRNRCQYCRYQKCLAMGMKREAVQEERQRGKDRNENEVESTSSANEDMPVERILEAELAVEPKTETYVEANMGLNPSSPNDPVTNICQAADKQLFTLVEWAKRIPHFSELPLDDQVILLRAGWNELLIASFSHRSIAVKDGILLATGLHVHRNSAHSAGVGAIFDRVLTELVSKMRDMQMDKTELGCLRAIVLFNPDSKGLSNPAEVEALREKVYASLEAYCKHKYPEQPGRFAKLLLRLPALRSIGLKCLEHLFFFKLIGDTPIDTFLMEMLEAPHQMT
Kind of assay: PPARγ binding assay (SPA). On the set-up: made in house; host or cells: HEK293 (cell lysates). As for the experimental part: (§1) Because GPR40 is known to be activated by ligands to PPARγ, the exemplified compound is examined in PPARα, PPARδ, and PPARγ binding and functional assays to determine the selectivity of the compound of Example 1 for GPR40.
(§2) Binding affinities of the compound for the PPAR α, δ, and γ receptors are assessed using Scintillation Proximity Assay (SPA) technology. Biotinylated oligonucleotide Direct Repeat 2 (DR2) is used for binding the receptors to Yttrium silicate streptavidin-coated SPA beads. PPAR α, δ, γ and retinoid X receptor (RXR) α are over expressed in HEK293 cells, and cell lysates containing the specific receptors are used in the individual assays. The DR2 is attached to the SPA beads over a 30 minute period in a binding buffer containing 10 mM HEPES pH 7.8, 80 mM KCl, 0.5 mM MgCl2, 1 mM DTT, 0.5% 3[(3-cholamidopropyl)dimethylammonio]-propanesulfonic acid (CHAPS), and 4.4% bovine serum. […] Non-specific binding is determined in the presence of 10,000 nM of the unlabeled PPAR α/δ dual agonist reference compound for the alpha and delta receptor assays and the PPARγ agonist reference compound for the gamma receptor assay. The binding reaction (100 μl per well in a 96 well [Costar 3632] plate) is incubated for 10 h and counted disintegration per minutes (dpm) on a Wallac Microbeta. Receptor binding affinity (IC50) for the compound is determined by fitting an 11 point concentration-response curve with a 4-parameter logistic equation. Ki is determined from the IC50 using the Cheng-Prussoff equation and Kd determined by saturation binding. […]

For a further assay, the target named is T2, PPARδ (Homo sapiens, UniProt Q03181).
T2 construct: made in house; host or cells: HEK293 (cell lysates)
T2 sequence (Q03181 1-441): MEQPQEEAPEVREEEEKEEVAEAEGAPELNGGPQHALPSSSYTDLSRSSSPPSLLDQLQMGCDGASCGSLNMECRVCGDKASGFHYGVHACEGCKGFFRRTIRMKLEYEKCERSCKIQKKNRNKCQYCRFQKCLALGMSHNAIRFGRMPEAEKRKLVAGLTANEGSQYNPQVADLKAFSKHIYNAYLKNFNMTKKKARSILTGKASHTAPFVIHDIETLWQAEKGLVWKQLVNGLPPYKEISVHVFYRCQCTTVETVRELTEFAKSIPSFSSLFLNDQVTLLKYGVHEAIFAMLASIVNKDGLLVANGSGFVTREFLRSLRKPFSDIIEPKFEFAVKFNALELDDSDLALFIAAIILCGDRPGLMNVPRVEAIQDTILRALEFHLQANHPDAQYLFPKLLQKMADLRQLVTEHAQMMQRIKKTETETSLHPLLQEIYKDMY
T2 sequence (P19793 1-462 partner): T1 sequence (P19793 1-462 partner)
Nature of the assay: PPARδ binding assay (SPA). The method, then: as §1, §2

[1] abbreviates: tested up to 30 μM, read-out: relative IC50.
Where [2] appears, read: with 10 μM concentrations of test compound.

By IC50 is commonly meant the concentration that inhibits the measured activity by half. Consider `CC#C[C@@H](CC(=O)O)c1ccc(OCc2ccc(CN3CCCc4cccc(OC)c43)s2)cc1` [Example 1, (3S)-3-[4-[[5-[(8-Methoxy-3,4-dihydro-2H-quinolin-1-yl)methyl]-2-thienyl]methoxy]phenyl]hex-4-ynoic acid], for which the binding result at PPARγ (concentrations up to 10 μM) and at PPARδ (concentrations up to 10 μM) was “no binding is detected” each time. Also, the IC50 on PPARγ (setting [1]) and at PPARδ (setting [1]) was more than 10 µM throughout. For the same compound, the PPAR binding values result at PPARγ (setting [2]) and at PPARδ (setting [2]) was “greater than 1000 nM” each time.
